Results reported in the NIST ThermoML archive (doi:10.1016/j.jct.2016.10.047).

Assay: heat capacity at constant pressure per volume; xn = mol fraction of the nth substance listed
Details: 102.6 kPa, Liquid, DSC, x1 = 0.08

CCCCCCCC[n+]1ccn(C)c1.F[P-](F)(F)(F)(F)F [1-octyl-3-methylimidazolium hexafluorophosphate] + CC(C)O
Details | heat capacity [J/K/m3]
306.1 K | 2358000
306.31 K | 2360000
306.53 K | 2376000
306.74 K | 2371000
306.95 K | 2378000
307.16 K | 2393000
307.38 K | 2371000
307.59 K | 2387000
307.8 K | 2406000
308.01 K | 2407000
308.23 K | 2403000
308.44 K | 2417000
308.65 K | 2426000
308.86 K | 2437000
309.07 K | 2429000
309.29 K | 2462000
309.5 K | 2458000
309.71 K | 2492000
309.92 K | 2498000
310.14 K | 2474000
310.35 K | 2486000
310.56 K | 2543000
310.77 K | 2578000
310.99 K | 2348000
311.2 K | 2313000
311.41 K | 2300000
311.62 K | 2301000
311.83 K | 2289000
312.05 K | 2291000
312.26 K | 2283000
312.47 K | 2282000
312.68 K | 2283000
312.89 K | 2268000
313.11 K | 2279000
313.32 K | 2266000
313.53 K | 2277000
313.74 K | 2270000
313.96 K | 2249000
314.17 K | 2265000
314.38 K | 2249000
314.59 K | 2263000
314.81 K | 2253000
315.02 K | 2254000
315.23 K | 2257000
315.44 K | 2255000
315.65 K | 2262000
315.87 K | 2264000
316.08 K | 2265000
316.29 K | 2248000
316.5 K | 2255000
316.72 K | 2243000
316.93 K | 2245000
317.14 K | 2256000
317.35 K | 2241000
317.57 K | 2246000
317.78 K | 2253000
317.99 K | 2242000
318.2 K | 2249000
318.42 K | 2245000
318.63 K | 2234000
318.84 K | 2249000
319.3 K | 2241000
319.64 K | 2242000
319.98 K | 2241000
320.31 K | 2240000
320.65 K | 2241000
320.99 K | 2241000
321.33 K | 2240000
321.67 K | 2240000
322 K | 2240000
322.34 K | 2241000
322.68 K | 2240000
323.02 K | 2240000
323.36 K | 2240000
323.69 K | 2240000
324.03 K | 2239000
324.37 K | 2239000
324.71 K | 2239000
325.05 K | 2240000
325.38 K | 2240000
325.72 K | 2238000
326.06 K | 2239000
326.4 K | 2239000
326.74 K | 2240000
327.07 K | 2239000
327.41 K | 2241000
327.75 K | 2240000
328.09 K | 2239000
328.43 K | 2240000
328.76 K | 2240000
329.1 K | 2240000
329.44 K | 2240000
329.78 K | 2240000
330.12 K | 2240000
330.46 K | 2241000
330.79 K | 2241000
331.13 K | 2237000
331.47 K | 2242000
331.81 K | 2239000
332.15 K | 2241000
332.48 K | 2241000
332.82 K | 2240000
333.16 K | 2239000
333.5 K | 2240000
333.84 K | 2241000
334.17 K | 2241000
334.51 K | 2241000
334.85 K | 2240000
335.19 K | 2243000
335.53 K | 2243000
335.86 K | 2242000
336.2 K | 2244000
336.54 K | 2243000
336.88 K | 2246000
337.22 K | 2247000
337.56 K | 2248000
337.89 K | 2251000
338.23 K | 2251000
338.57 K | 2254000
338.91 K | 2241000
